Test results as given in ChEMBL document CHEMBL3244140, “Folate antagonists. 12. Antimalarial and antibacterial effects of 2,4-diamino-6-[(aralkyl and alicyclid)thio-, sulfinyl-, and sulfonyl]quinazolines” (J Med Chem, 1978).
≈ marks a conversion by molar mass, not a printed value. Calls of active or inactive are those of the source. The calls are words filed in the database; no cut-off is given here.

Experiments:
Plasmodium berghei [1] = experiment: Antiplasmodial activity against drug-sensitive Plasmodium berghei infected in mouse assessed as change in mean survival time at 640 mg/kg, sc administered as single dose 72 hrs post infection; assay type: functional; details: route subcutaneous
Plasmodium berghei [2] = experiment: Antiplasmodial activity against drug-sensitive Plasmodium berghei infected in mouse assessed as change in mean survival time at 320 mg/kg, sc administered as single dose 72 hrs post infection measured 60 days postinfection; assay type: functional; details: route subcutaneous
Plasmodium berghei [3] = experiment: Antiplasmodial activity against drug-sensitive Plasmodium berghei infected in mouse assessed as change in mean survival time at 160 mg/kg, sc administered as single dose 72 hrs post infection; assay type: functional; details: route subcutaneous
Plasmodium berghei [4] = experiment: Antiplasmodial activity against drug-sensitive Plasmodium berghei infected in mouse assessed as change in mean survival time at 80 mg/kg, sc administered as single dose 72 hrs post infection; assay type: functional; details: route subcutaneous
Plasmodium berghei [5] = experiment: Antiplasmodial activity against drug-sensitive Plasmodium berghei infected in mouse assessed as change in mean survival time at 40 mg/kg, sc administered as single dose 72 hrs post infection; assay type: functional; details: route subcutaneous
Plasmodium berghei [6] = experiment: Antiplasmodial activity against drug-sensitive Plasmodium berghei infected in mouse assessed as change in mean survival time at 20 mg/kg, sc administered as single dose 72 hrs post infection; assay type: functional; details: route subcutaneous
Enterococcus faecalis = experiment: Antibacterial activity against Streptococcus faecalis MGH2 assessed as growth inhibition by Gradient plate test; assay type: functional
Staphylococcus aureus [7] = experiment: Antibacterial activity against Staphylococcus aureus UC-76 assessed as growth inhibition by Gradient plate test; assay type: functional
Staphylococcus aureus [8] = experiment: Antibacterial activity against drug-resistant Staphylococcus aureus S18713 assessed as growth inhibition by Gradient plate test; assay type: functional
Pseudomonas aeruginosa = experiment: Antibacterial activity against Pseudomonas aeruginosa 28 by Gradient plate test; assay type: functional, organism-based
Escherichia coli = experiment: Antibacterial activity against Escherichia coli Vogel by Gradient plate test; assay type: functional, organism-based
Shigella sonnei = experiment: Antibacterial activity against Shigella sonnei C-10 by Gradient plate test; assay type: functional, organism-based
Plasmodium berghei [9] = experiment: Antiplasmodial activity against drug-sensitive Plasmodium berghei infected in mouse assessed as cure from infection at 640 mg/kg, sc administered as single dose 72 hrs post infection measured 60 days postinfection; assay type: functional, organism-based; set-up: dose 640 mg/kg
Plasmodium berghei [10] = experiment: Antiplasmodial activity against drug-sensitive Plasmodium berghei infected in mouse assessed as cure from infection at 320 mg/kg, sc administered as single dose 72 hrs post infection measured 60 days postinfection; assay type: functional, organism-based; set-up: dose 320 mg/kg
Mus musculus [11] = experiment: Toxicity in drug-sensitive Plasmodium berghei infected mouse at 640 mg/kg, sc administered as single dose 72 hrs post infection […]; assay type: organism-based; set-up: dose 640 mg/kg, route subcutaneous; details: in vivo
Mus musculus [12] = experiment: Toxicity in drug-sensitive Plasmodium berghei infected mouse at 320 mg/kg, sc administered as single dose 72 hrs post infection measured 2 to 5 days postinfection; assay type: organism-based; set-up: dose 320 mg/kg, route subcutaneous; details: in vivo
Plasmodium berghei [13] = experiment: Antiplasmodial activity against drug-sensitive Plasmodium berghei infected in mouse assessed as cure from infection at 160 mg/kg, sc administered as single dose 72 hrs post infection measured 60 days postinfection; assay type: functional, organism-based; set-up: dose 160 mg/kg

Nc1nc(N)c2cc([S+]([O-])Cc3ccc(Cl)cc3)ccc2n1 (stereo unspecified)
MSD (Plasmodium berghei [1]): 5.9 days
MSD (Plasmodium berghei [2]): 2.9 days
MSD (Plasmodium berghei [3]): 0.9 days
MSD (Plasmodium berghei [4]): 0.7 days
MSD (Plasmodium berghei [5]): 0.5 days
MSD (Plasmodium berghei [6]): 0.3 days
MIC (Enterococcus faecalis): > 25 µg/mL
MIC (Staphylococcus aureus [7]): 25 µg/mL (≈ 75.1 µM)
MIC (Staphylococcus aureus [8]): > 25 µg/mL
Activity (Pseudomonas aeruginosa): inactive
Activity (Escherichia coli): inactive
Activity (Shigella sonnei): inactive

Nc1nc(N)c2cc(SCc3ccc(Cl)cc3)ccc2n1
MSD (Plasmodium berghei [1]): 17.3 days
MSD (Plasmodium berghei [2]): 9.8 days
MSD (Plasmodium berghei [3]): 4.2 days
MSD (Plasmodium berghei [4]): 2.6 days
MSD (Plasmodium berghei [5]): 0.8 days
MSD (Plasmodium berghei [6]): 0.4 days
MIC (Enterococcus faecalis): < 0.25 µg/mL
MIC (Staphylococcus aureus [7]): < 0.25 µg/mL
MIC (Staphylococcus aureus [8]): < 0.25 µg/mL
Activity (Pseudomonas aeruginosa): inactive
Activity (Escherichia coli): inactive
Activity (Shigella sonnei): inactive

CC(=O)O.Nc1nc(N)c2cc(NCc3ccc(Cl)c(Cl)c3)ccc2n1
Activity (Plasmodium berghei [9]): Active
Activity (Plasmodium berghei [10]): Active
MSD (Plasmodium berghei [3]): 9.9 days
MSD (Plasmodium berghei [4]): 12.9 days
MSD (Plasmodium berghei [5]): 7.1 days
MSD (Plasmodium berghei [6]): 2.5 days

Nc1nc(N)c2c(Cl)c([S+]([O-])Cc3ccc(Cl)cc3)ccc2n1 (stereo unspecified)
MSD (Plasmodium berghei [1]): 0.3 days
MSD (Plasmodium berghei [3]): 0.3 days
MSD (Plasmodium berghei [5]): 0.1 days
MIC (Enterococcus faecalis): < 0.25 µg/mL
MIC (Staphylococcus aureus [7]): > 25 µg/mL
MIC (Staphylococcus aureus [8]): > 25 µg/mL
Activity (Pseudomonas aeruginosa): inactive
Activity (Escherichia coli): inactive
Activity (Shigella sonnei): inactive

Nc1nc(N)c2cc(OCc3ccc(Cl)cc3)ccc2n1
MSD (Plasmodium berghei [1]): 13.3 days
MSD (Plasmodium berghei [2]): 11.2 days
MSD (Plasmodium berghei [3]): 7.2 days
MSD (Plasmodium berghei [4]): 3.6 days
MSD (Plasmodium berghei [5]): 1.7 days
MSD (Plasmodium berghei [6]): 1.2 days

Nc1nc(N)c2cc(SC34CC5CC(CC(C5)C3)C4)ccc2n1
MSD (Plasmodium berghei [1]): 10.7 days
MSD (Plasmodium berghei [2]): 1.1 days
MSD (Plasmodium berghei [3]): 0.3 days
MSD (Plasmodium berghei [4]): 0.3 days
MSD (Plasmodium berghei [5]): 0.3 days
MSD (Plasmodium berghei [6]): 0.1 days
MIC (Enterococcus faecalis): < 0.25 µg/mL
MIC (Staphylococcus aureus [7]): < 0.25 µg/mL
MIC (Staphylococcus aureus [8]): < 0.25 µg/mL
Activity (Pseudomonas aeruginosa): inactive
Activity (Escherichia coli): inactive
Activity (Shigella sonnei): inactive

CC(Sc1ccc2nc(N)nc(N)c2c1)c1ccc(Cl)cc1 (stereo unspecified)
Activity (Plasmodium berghei [9]): Active
MSD (Plasmodium berghei [2]): 17 days
MSD (Plasmodium berghei [3]): 10.9 days
MSD (Plasmodium berghei [4]): 9.6 days
MSD (Plasmodium berghei [5]): 5.7 days
MSD (Plasmodium berghei [6]): 3.7 days
MIC (Enterococcus faecalis): < 0.25 µg/mL
MIC (Staphylococcus aureus [7]): < 0.25 µg/mL
MIC (Staphylococcus aureus [8]): 1 µg/mL (≈ 3.02 µM)
Activity (Pseudomonas aeruginosa): inactive
Activity (Escherichia coli): inactive
Activity (Shigella sonnei): inactive

Nc1nc(N)c2cc(S(=O)(=O)Cc3ccc(Cl)cc3)ccc2n1
MSD (Plasmodium berghei [1]): 5.9 days
MSD (Plasmodium berghei [2]): 0.9 days
MSD (Plasmodium berghei [3]): 0.3 days
MSD (Plasmodium berghei [4]): 0.3 days
MSD (Plasmodium berghei [5]): 0.1 days
MSD (Plasmodium berghei [6]): 0.1 days
MIC (Enterococcus faecalis): > 25 µg/mL
MIC (Staphylococcus aureus [7]): > 25 µg/mL
MIC (Staphylococcus aureus [8]): > 25 µg/mL
Activity (Pseudomonas aeruginosa): inactive
Activity (Escherichia coli): inactive
Activity (Shigella sonnei): inactive

Nc1nc(N)c2cc(SCCc3ccccc3)ccc2n1
MSD (Plasmodium berghei [2]): 17.2 days
MSD (Plasmodium berghei [3]): 4.5 days
MSD (Plasmodium berghei [4]): 0.9 days
MSD (Plasmodium berghei [5]): 0.5 days
MSD (Plasmodium berghei [6]): 0.5 days

Nc1nc(N)c2c(Cl)c(S(=O)(=O)Cc3ccc(Cl)cc3)ccc2n1
MSD (Plasmodium berghei [1]): 0.1 days
MSD (Plasmodium berghei [3]): 0.1 days
MSD (Plasmodium berghei [5]): 0.1 days
MIC (Enterococcus faecalis): < 0.25 µg/mL
MIC (Staphylococcus aureus [7]): 5 µg/mL (≈ 13 µM)
MIC (Staphylococcus aureus [8]): 10 µg/mL (≈ 26.1 µM)
Activity (Pseudomonas aeruginosa): inactive
Activity (Escherichia coli): inactive
Activity (Shigella sonnei): inactive

Nc1nc(N)c2cc(SC3CCCCC3)ccc2n1
Activity (Plasmodium berghei [9]): Active
MSD (Plasmodium berghei [2]): 12.9 days
MSD (Plasmodium berghei [3]): 9.1 days
MSD (Plasmodium berghei [4]): 5.7 days
MSD (Plasmodium berghei [5]): 2.5 days
MSD (Plasmodium berghei [6]): 0.7 days
MIC (Enterococcus faecalis): 10 µg/mL (≈ 36.4 µM)
MIC (Staphylococcus aureus [7]): < 0.25 µg/mL
MIC (Staphylococcus aureus [8]): 10 µg/mL (≈ 36.4 µM)
Activity (Pseudomonas aeruginosa): inactive
Activity (Escherichia coli): inactive
Activity (Shigella sonnei): inactive

CC1(C)N=C(N)N=C(N)N1c1ccc(Cl)cc1.Cl [CHLORCYCLOGUANIL HYDROCHLORIDE]
Activity (Mus musculus [11]): Toxic
Activity (Mus musculus [12]): Toxic
Activity (Plasmodium berghei [13]): Active
MSD (Plasmodium berghei [4]): 21.6 days
MSD (Plasmodium berghei [5]): 13.4 days
MSD (Plasmodium berghei [6]): 7.9 days

Nc1nc(N)c2cc(SCc3ccccc3)ccc2n1
MSD (Plasmodium berghei [1]): 10.7 days
MSD (Plasmodium berghei [2]): 4.9 days
MSD (Plasmodium berghei [3]): 1.1 days
MSD (Plasmodium berghei [4]): 0.9 days
MSD (Plasmodium berghei [5]): 0.5 days
MSD (Plasmodium berghei [6]): 0.5 days

Nc1nc(N)c2c(Cl)c(SCc3ccc(Cl)cc3)ccc2n1
MSD (Plasmodium berghei [1]): 7.9 days
MSD (Plasmodium berghei [2]): 3.1 days
MSD (Plasmodium berghei [3]): 1.7 days
MSD (Plasmodium berghei [4]): 1.1 days
MSD (Plasmodium berghei [5]): 0.5 days
MSD (Plasmodium berghei [6]): 0.5 days

COc1cc(Cc2cnc(N)nc2N)cc(OC)c1OC [TRIMETHOPRIM]
MIC (Enterococcus faecalis): < 0.25 µg/mL
MIC (Staphylococcus aureus [7]): < 0.25 µg/mL
MIC (Staphylococcus aureus [8]): < 0.25 µg/mL
Activity (Pseudomonas aeruginosa): inactive
Activity (Escherichia coli): inactive
Activity (Shigella sonnei): inactive
